Source: patent US6743809B2, “Indole Derivatives useful for the treatment of CNS disorders” (H. Lundbeck A/S, priority 2000, dated 2004)

Molecular target: T1, human cloned dopamine D4.2 receptors (Homo sapiens, UniProt P21917, DEL265-296)
T1 construct: expressed in transfected cells; host or cells: CHO cells
T1 sequence (P21917 with tags, fused parts or gaps DEL265-296): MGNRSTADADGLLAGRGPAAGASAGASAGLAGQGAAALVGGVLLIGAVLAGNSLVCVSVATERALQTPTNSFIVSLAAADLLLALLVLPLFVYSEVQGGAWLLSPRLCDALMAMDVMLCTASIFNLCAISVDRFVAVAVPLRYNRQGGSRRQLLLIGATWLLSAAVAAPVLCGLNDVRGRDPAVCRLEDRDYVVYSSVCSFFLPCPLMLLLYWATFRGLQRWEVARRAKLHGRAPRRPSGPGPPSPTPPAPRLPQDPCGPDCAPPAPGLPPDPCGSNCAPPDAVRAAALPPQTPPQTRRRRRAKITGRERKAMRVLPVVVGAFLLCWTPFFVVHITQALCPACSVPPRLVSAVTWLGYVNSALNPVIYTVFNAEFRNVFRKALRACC
Assay: Inhibition of the binding of [3H]YM-09151-2 to human dopamine D4 receptors
Conditions: 50 nM compound; [3H]YM-09151-2 0.06 nM; membranes of CHO-cells
Procedure: Inhibition of the Binding of [^3H]YM-09151-2 to Human Dopamine D4 Receptors
By this method, the inhibition by drugs of the binding of [^3H]YM-09151-2 (0.06 nM) to membranes of human cloned dopamine D4.2 receptors expressed in CHO-cells is determined in vitro. The method is modified from NEN Life Science Products, Inc., technical data certificate PC2533-10/96.

Compound | % inhibition of binding at 50 nM [%] | inhibition at 0.05 µM [%]
3-(1-{2-[5-(Isobutanolamino)-2-methylphenyl]ethyl}piperidin-4-yl)-5-fluoro-1H-indole [Compound 3f] | 96 | –
CC(=O)Nc1ccc(C)c(CCN2CCC(c3c[nH]c4ccc(F)cc34)CC2)c1 [Compound 3a, 3-(1-{2-[5-(Acetylamino)-2-methylphenyl]ethyl}piperidin-4-yl)-5-fluoro-1H-indole] | – | 83
Cc1ccc(NC(=O)C2CCOCC2)cc1CCN1CCC(c2c[nH]c3ccc(F)cc23)CC1 [Compound 3aa, 3-(1-{2-[2-Methyl-5-(tetrahydropyran-4-ylmethanoylamino)phenyl]ethyl}piperidin-4-yl)-5-fluoro-1H-indole] | – | 96
Cc1ccc(NC(=O)c2ccc(Cl)cc2)cc1CCN1CCC(c2c[nH]c3c(Cl)cccc23)CC1 [Compound 3ab, 3-(1-{2-[5-(4-Chlorobenzoylamino)-2-methylphenyl]ethyl}piperidin-4-yl)-7-chloro-1H-indole] | – | 79
Cc1ccc(NC(=O)CCC2CCCCC2)cc1CCN1CCC(c2c[nH]c3ccc(F)cc23)CC1 [Compound 3ac, 3-(1-{2-[5-(3-Cyclohexylpropanoylamino)-2-methylphenyl]ethyl}piperidin-4-yl)-5-fluoro-1H-indole] | – | 97
Cc1ccc(NC(=O)CCc2ccccc2)cc1CCN1CCC(c2c[nH]c3c(Cl)cccc23)CC1 [Compound 3ad, 3-[1-(2-{5-[(3-Phenylpropanoyl)amino]-2-methylphenyl}ethyl)piperidin-4-yl]-7-chloro-1H-indole] | – | 83
Cc1ccc(NC(=O)Cc2ccccc2)cc1CCN1CCC(c2c[nH]c3c(Cl)cccc23)CC1 [Compound 3ae, 3-[1-(2-{5-[(2-Phenylethanoyl)amino]-2-methylphenyl}ethyl)piperidin-4-yl]-7-chloro-1H-indole] | – | 89
Cc1ccc(C(=O)Nc2ccc(C)c(CCN3CCC(c4c[nH]c5c(Cl)cccc45)CC3)c2)cc1 [Compound 3af, 3-(1-{2-[2-Methyl-5-(4-methylbenzoylamino)phenyl]ethyl}piperidin-4-yl)-7-chloro-1H-indole] | – | 90
Cc1ccc(NC(=O)C2CC2)cc1CCN1CCC(c2c[nH]c3c(Cl)cccc23)CC1 [Compound 3ag, 3-(1-{2-[5-(Cyclopropylmethanoylamino)-2-methylphenyl]ethyl}piperidin-4-yl)-7-chloro-1H-indole] | – | 95
Cc1ccc(NC(=O)c2cccs2)cc1CCN1CCC(c2c[nH]c3ccc(Cl)cc23)CC1 [Compound 3b, 3-(1-{2-[2-Methyl-5-(thiophen-2-ylmethanoylamino)phenyl]ethyl}piperidin-4-yl)-5-chloro-1H-indole] | – | 86
COc1cccc(C(=O)Nc2ccc(C)c(CCN3CCC(c4c[nH]c5ccc(Cl)cc45)CC3)c2)c1 [Compound 3c, 3-(1-{2-[2-Methyl-5-(3-methoxybenzoylamino)phenyl]ethyl}piperidin-4-yl)-5-chloro-1H-indole] | – | 68
Cc1ccc(NC(=O)C2CC2)cc1CCN1CCC(c2c[nH]c3ccc(F)cc23)CC1 [Compound 3d, 3-(1-{2-[5-(Cyclopropylmethanoylamino)-2-methylphenyl]ethyl}piperidin-4-yl)-5-fluoro-1H-indole] | – | 89
Cc1ccc(NC(=O)c2cccs2)cc1CCN1CCC(c2c[nH]c3ccc(F)cc23)CC1 [Compound 3e, 3-(1-{2-[2-Methyl-5-(thiophen-2-ylmethanoylamino)phenyl]ethyl}piperidin-4-yl)-5-fluoro-1H-indole] | – | 89
Cc1ccc(NC(=O)C(C)(C)C)cc1CCN1CCC(c2c[nH]c3ccc(F)cc23)CC1 [Compound 3g, 3-(1-{2-[2-Methyl-5-(pivaloylamino)phenyl]ethyl}piperidin-4-yl)-5-fluoro-1H-indole] | – | 86
CCCCCC(=O)Nc1ccc(C)c(CCN2CCC(c3c[nH]c4ccc(F)cc34)CC2)c1 [Compound 3h, 3-(1-{2-[5-(Hexanoylamino)-2-methylphenyl]ethyl}piperidin-4-yl)-5-fluoro-1H-indole] | – | 83
COc1cccc(C(=O)Nc2ccc(C)c(CCN3CCC(c4c[nH]c5ccc(F)cc45)CC3)c2)c1 [Compound 3j, 3-(1-{2-[5-(3-Methoxybenzoylamino)-2-methylphenyl]ethyl}piperidin-4-yl)-5-fluoro-1H-indole] | – | 90
Cc1ccc(NC(=O)c2cccnc2)cc1CCN1CCC(c2c[nH]c3ccc(F)cc23)CC1 [Compound 3k, 3-(1-{2-[2-Methyl-5-(pyridin-3-ylmethanoylamino)phenyl]ethyl}piperidin-4-yl)-5-fluoro-1H-indole] | – | 91

Compound | % inhibition of binding at 50 nM [%] | inhibition at 0.05 µM [%]
Cc1ccc(NC(=O)CCc2ccccc2)cc1CCN1CCC(c2c[nH]c3ccc(F)cc23)CC1 [Compound 3l, 3-(1-{2-[2-Methyl-5-(3-phenylpropanoylamino)phenyl]ethyl}piperidin-4-yl)-5-fluoro-1H-indole] | – | 74
Cc1ccc(C(=O)Nc2ccc(C)c(CCN3CCC(c4c[nH]c5ccc(F)cc45)CC3)c2)cc1 [Compound 3m, 3-(1-{2-[2-Methyl-5-(4-methylbenzoylamino)phenyl]ethyl}piperidin-4-yl)-5-fluoro-1H-indole] | – | 81
Cc1ccc(NC(=O)N(C)c2ccccc2)cc1CCN1CCC(c2c[nH]c3cc(Cl)ccc23)CC1 [Compound 3n, 3-(1-{2-[2-Methyl-5-(3-Methyl-3-phenylureido)phenyl]ethyl}piperidin-4-yl)-6-chloro-1H-indole] | – | 76
Cc1ccc(NC(=O)C2CC2)cc1CCN1CCC(c2c[nH]c3cc(Cl)ccc23)CC1 [Compound 3o, 3-(1-{2-[5-(Cyclopropylmethanoylamino)-2-methylphenyl]ethyl}piperidin-4-yl)-6-chloro-1H-indole] | – | 99
Cc1ccc(NC(=O)c2cccs2)cc1CCN1CCC(c2c[nH]c3cc(Cl)ccc23)CC1 [Compound 3p, 3-(1-{2-[2-Methyl-5-(thiophen-2-ylmethanoylamino)phenyl]ethyl}piperidin-4-yl)-6-chloro-1H-indole] | – | 92
Cc1ccc(NC(=O)C(C)C)cc1CCN1CCC(c2c[nH]c3cc(Cl)ccc23)CC1 [Compound 3q, 3-(1-{2-[5-(Isobutanoylamino)-2-methylphenyl]ethyl}piperidin-4-yl)-6-chloro-1H-indole] | – | 97
COc1cccc(C(=O)Nc2ccc(C)c(CCN3CCC(c4c[nH]c5cc(Cl)ccc45)CC3)c2)c1 [Compound 3r, 3-(1-{2-[5-(3-Methoxybenzoylamino)-2-methylphenyl]ethyl}piperidin-4-yl)-6-chloro-1H-indole] | – | 88
Cc1ccc(NC(=O)c2cccnc2)cc1CCN1CCC(c2c[nH]c3cc(Cl)ccc23)CC1 [Compound 3s, 3-(1-{2-[2-Methyl-5-(pyridin-3-ylmethanoylamino)phenyl]ethyl}piperidin-4-yl)-6-chloro-1H-indole] | – | 92
COc1ccc(CC(=O)Nc2ccc(C)c(CCN3CCC(c4c[nH]c5cc(Cl)ccc45)CC3)c2)cc1 [Compound 3t, 3-[1-(2-{5-[2-(4-Methoxyphenyl)ethanoylamino]-2-methylphenyl}ethyl)piperidin-4-yl]-6-chloro-1H-indole] | – | 75
Cc1ccc(C(=O)Nc2ccc(C)c(CCN3CCC(c4c[nH]c5cc(Cl)ccc45)CC3)c2)cc1 [Compound 3u, 3-(1-{2-[2-Methyl-5-(4-methylbenzoylamino)phenyl]ethyl}piperidin-4-yl)-6-chloro-1H-indole] | – | 86
Cc1ccc(NC(=O)C2CCCC2)cc1CCN1CCC(c2c[nH]c3cc(Cl)ccc23)CC1 [Compound 3v, 3-[1-(2-{5-[(Cyclopentylmethanoyl)amino]-2-methylphenyl}ethyl)piperidin-4-yl]-6-chloro-1H-indole] | – | 95
Cc1ccc(NC(=O)N2CCOCC2)cc1CCN1CCC(c2c[nH]c3ccc(F)cc23)CC1 [Compound 3x, 3-(1-{2-[2-Methyl-5-(morfolin-4-ylmethanoylamino)phenyl]ethyl}piperidin-4-yl)-5-fluoro-1H-indole] | 90 | –
Cc1ccc(NC(=O)Nc2ccc(F)cc2)cc1CCN1CCC(c2c[nH]c3ccc(F)cc23)CC1 [Compound 3y, 3-[1-(2-{5-[3-(4-Fluorophenyl)ureido]-2-methylphenyl}ethyl)piperidin-4-yl]-5-fluoro-1H-indole] | – | 83
CCCCCC(=O)Nc1ccc(C)c(CCN2CCC(c3c[nH]c4c(Cl)cccc34)CC2)c1 [Compound 3z, 3-(1-{2-[5-(Hexanoylamino)-2-methylphenyl]ethyl}piperidin-4-yl)-7-chloro-1H-indole] | – | 91
Cc1ccc(NC(=O)c2ccccc2)cc1CCN1CCC(c2c[nH]c3c(Cl)cccc23)CC1 [Compound 4d, 3-(1-{2-[5-(benzoylamino)-2-Methylphenyl]ethyl}piperidin-4-yl)-7-chloro-1H-indole] | – | 48
Cc1ccc(NC(=O)c2ccc(F)cc2)cc1CCN1CCC(c2c[nH]c3c(Cl)cccc23)CC1 [Compound 4e, 3-(1-{2-[5-(4-Fluorobenzoylamino)-2-methylphenyl]ethyl}piperidin-4-yl)-7-chloro-1H-indole] | – | 44
